Measurements published in patent publication US12662475B2, “Difluorocyclohexyl derivatives as IL-17 modulators” (UCB BIOPHARMA SRL, priority 2020, dated 2026).

Test system: IL-17 induced IL-6 release from human dermal fibroblasts
Test: Inhibition of IL-17A induced IL-6 release from dermal fibroblast cell line (HDF cell line assay)
Assay type: cell-based
Conditions: Incubation Time 5 h
Protocol: Inhibition of IL-17A Induced IL-6 Release from Dermal Fibroblast Cell Line
The purpose of this assay is to test the neutralising ability to IL-17 proteins, in a human primary cell system.
The resultant IL-6 response was then measured using a homogenous time-resolved FRET kit from Cisbio. The kit utilises two monoclonal antibodies, one labelled with Eu-Cryptate (Donor) and the second with d2 or XL665 (Acceptor).
The ability of a compound to inhibit IL-17 induced IL-6 release from human dermal fibroblasts is measured in this assay.
The TrypLE was neutralised using complete medium (45 mL) and the cells were centrifuged at 300×g for 3 minutes. […] The cells were left for a minimum of three hours, at 37° C./5% CO2, to adhere to the plate.
10 μL from the aqueous dilution plate was transferred to the reagent plate containing 30 μL of the diluted cytokines, to give a 2.5% DMSO solution. The compounds were incubated with the cytokine mixtures for 1 h or 5 h at 37° C. After the incubation, 10 μL was transferred to the assay plate, to give a […] solution, then incubated for 18-20 h at 37° C./5% CO2.

SMILES | IC50 [nM]
O=C(N[C@H](c1nc2c(F)c([C@H](CC(F)F)C(=O)NCC(F)(F)F)ccc2[nH]1)C1CCC(F)(F)CC1)c1ccccc1F (single isomer, unassigned) [Example 50] | 10
Cc1nonc1C(=O)N[C@H](c1nc2c(F)c([C@H](CC(F)(F)F)C(=O)NCC(F)(F)F)ccc2[nH]1)C1CCC(F)(F)CC1 (single isomer, unassigned) [Example 34] | 2.51
Cc1nonc1C(=O)N[C@H](c1nc2c(F)c([C@@H](CC(F)(F)F)C(=O)NCC(F)(F)F)ccc2[nH]1)C1CCC(F)(F)CC1 (single isomer, unassigned) [Example 35] | 631
Cc1nonc1C(=O)N[C@H](c1nc2c(F)c([C@@H](CC(F)(F)F)C(=O)N[C@@H](C)C(F)(F)F)ccc2[nH]1)C1CCC(F)(F)CC1 (single isomer, unassigned) [Example 26] | 126
Cc1nonc1C(=O)N[C@H](c1nc2c(F)c([C@H](CC(F)(F)F)C(=O)NCC(F)F)ccc2[nH]1)C1CCC(F)(F)CC1 (single isomer, unassigned) [Example 37] | 15.8
CC(C)n1ncnc1C(=O)N[C@H](c1nc2c(F)c([C@H](CC(F)(F)F)C(=O)NCC(C)(F)F)ccc2[nH]1)C1CCC(F)(F)CC1 (single isomer, unassigned) [Example 70] | 6.31
CC(C)n1ncnc1C(=O)N[C@H](c1nc2c(F)c([C@H](CC(C)(F)F)C(=O)NCC(C)(F)F)ccc2[nH]1)C1CCC(F)(F)CC1 (mixture of isomers) [Example 85, N—[(S)-(4,4-Difluorocyclohexyl){5-[1-(2,2-difluoropropylcarbamoyl)-3,3-difluorobutyl]-4-fluoro-1H-benzimidazol-2-yl}methyl]-2-isopropyl-1,2,4-triazole-3-carboxamide] | 12.6
Cc1nonc1C(=O)N[C@H](c1nc2c(F)c([C@H](CC(F)(F)F)C(=O)N[C@@H](C(=O)N(C)C)C(C)C)ccc2[nH]1)C1CCC(F)(F)CC1 (single isomer, unassigned) [Example 11] | 3.98
Cc1nonc1C(=O)N[C@H](c1nc2c(F)c(C(CC(F)F)C(=O)NC(C3CC3)C(F)(F)F)ccc2[nH]1)C1CCC(F)(F)CC1 (stereo partly drawn) [Example 52, N—[(S)-(5-{1-[(1-Cyclopropyl-2,2,2-trifluoroethyl)carbamoyl]-3,3-difluoropropyl}-4-fluoro-1H-benzimidazol-2-yl)(4,4-difluorocyclohexyl)methyl]-4-methyl-1,2,5-oxadiazole-3-carboxamide] | 5.01
O=C(NCC(F)(F)F)[C@@H](CC(F)F)c1ccc2[nH]c([C@@H](NC(=O)C3(F)CC3)C3CCC(F)(F)CC3)nc2c1F [Example 81, N—[(S)-(4,4-Difluorocyclohexyl){5-[(1S)-3,3-difluoro-1-(2,2,2-trifluoroethylcarbamoyl)-propyl]-4-fluoro-1H-benzimidazol-2-yl}methyl]-1-fluorocyclopropanecarboxamide] | 31.6
Cc1nonc1C(=O)N[C@H](c1nc2c(F)c(C(CC(F)(F)F)C(=O)N[C@@H](C)C(F)(F)F)ccc2[nH]1)C1CCC(F)(F)CC1 (mixture of isomers) [Example 15, N—{(S)-(4,4-Difluorocyclohexyl)[4-fluoro-5-(3,3,3-trifluoro-1-{[(1S)-2,2,2-trifluoro-1-methylethyl]carbamoyl}propyl)-1H-benzimidazol-2-yl]methyl}-4-methyl-1,2,5-oxadiazole-3-carboxamide] | 20
O=C(N[C@H](c1nc2c(F)c(C(CC(F)F)C(=O)NCC(F)(F)F)ccc2[nH]1)C1CCC(F)(F)CC1)c1ccccc1F (mixture of isomers) [Example 49, N—[(S)-(4,4-Difluorocyclohexyl){5-[3,3-difluoro-1-(2,2,2-trifluoroethylcarbamoyl)-propyl]-4-fluoro-1H-benzimidazol-2-yl}methyl]-2-fluorobenzamide] | 31.6
CC(C)n1ncnc1C(=O)N[C@H](c1nc2c(F)c([C@@H](CC(F)F)C(=O)NCC(C)(F)F)ccc2[nH]1)C1CCC(F)(F)CC1 (single isomer, unassigned) [Example 54] | 79.4
CC(C)n1ncnc1C(=O)N[C@H](c1nc2c(F)c([C@H](CC(C)(F)F)C(=O)NCC(C)(C)F)ccc2[nH]1)C1CCC(F)(F)CC1 [Example 79, N—[(S)-(4,4-Difluorocyclohexyl)(5-{(1S)-3,3-difluoro-1-[(2-fluoro-2-methylpropyl)-carbamoyl]butyl}-4-fluoro-1H-benzimidazol-2-yl)methyl]-2-isopropyl-1,2,4-triazole-3-carboxamide] | 7.94
CC(C)n1ncnc1C(=O)N[C@H](c1nc2c(F)c([C@H](CC(C)(F)F)C(=O)NCC(C)(F)F)ccc2[nH]1)C1CCC(F)(F)CC1 (single isomer, unassigned) [Example 87] | 7.94
CC(C)n1ncnc1C(=O)N[C@H](c1nc2c(F)c([C@@H](CC(F)F)C(=O)NCC(C)(C)F)ccc2[nH]1)C1CCC(F)(F)CC1 (single isomer, unassigned) [Example 57] | 2510
CCS(=O)(=O)CCC(C(=O)N1CC(F)(F)C(F)(F)C1)c1ccc2[nH]c([C@@H](NC(=O)c3nonc3C)C3CCC(F)(F)CC3)nc2c1F (mixture of isomers) [Example 27, N—[(S)-(4,4-Difluorocyclohexyl){5-[3-(ethylsulfonyl)-1-(3,3,4,4-tetrafluoropyrrolidine-1-carbonyl)propyl]-4-fluoro-1H-benzimidazol-2-yl}methyl]-4-methyl-1,2,5-oxadiazole-3-carboxamide] | 6.31
CC(C)n1ncnc1C(=O)N[C@H](c1nc2c(F)c([C@@H](CC(C)(F)F)C(=O)NCC(C)(F)F)ccc2[nH]1)C1CCC(F)(F)CC1 (single isomer, unassigned) [Example 86] | 6310
CC(C)n1ncnc1C(=O)N[C@H](c1nc2c(F)c(C(CC(F)(F)F)C(=O)NCC(C)(C)F)ccc2[nH]1)C1CCC(F)(F)CC1 (mixture of isomers) [Example 71, N—[(S)-(4,4-Difluorocyclohexyl)(4-fluoro-5-{3,3,3-trifluoro-1-[(2-fluoro-2-methyl-propyl)carbamoyl]propyl}-1H-benzimidazol-2-yl)methyl]-2-isopropyl-1,2,4-triazole-3-carboxamide] | 25.1
Cc1nonc1C(=O)N[C@H](c1nc2c(F)c([C@@H](CC(F)(F)F)C(=O)NCC(F)F)ccc2[nH]1)C1CCC(F)(F)CC1 (single isomer, unassigned) [Example 38] | 100
CCS(=O)(=O)CC[C@@H](C(=O)N1CC(F)(F)C(F)(F)C1)c1ccc2[nH]c([C@@H](NC(=O)c3nonc3C)C3CCC(F)(F)CC3)nc2c1F (single isomer, unassigned) [Example 29] | 126
Cc1nonc1C(=O)N[C@H](c1nc2c(F)c(C(CC(F)(F)F)C(=O)NCCC(F)(F)F)ccc2[nH]1)C1CCC(F)(F)CC1 (stereo partly drawn) [Example 13, N—[(S)-(4,4-Difluorocyclohexyl){4-fluoro-5-[3,3,3-trifluoro-1-(3,3,3-trifluoropropyl-carbamoyl)propyl]-1H-benzimidazol-2-yl}methyl]-4-methyl-1,2,5-oxadiazole-3-carboxamide] | 5.01
Cc1nonc1C(=O)N[C@H](c1nc2c(F)c([C@H](CC(F)(F)F)C(=O)N[C@@H](C)C(F)(F)F)ccc2[nH]1)C1CCC(F)(F)CC1 (single isomer, unassigned) [Example 25] | 7.94
O=C(N[C@H](c1nc2nc(C3(C(=O)NCC(F)(F)F)CCC(F)(F)CC3)ccc2[nH]1)C1CCC(F)(F)CC1)C1(F)CC1 [Example 78, 1-(2-{(S)-(4,4-Difluorocyclohexyl)[(1-fluorocyclopropanecarbonyl)amino]methyl}-1H-imidazo[4,5-b]pyridin-5-yl)-4,4-difluoro-N-(2,2,2-trifluoroethyl)cyclohexanecarboxamide] | 15.8
CC(F)(F)CNC(=O)[C@H](CC(F)(F)F)c1ccc2[nH]c([C@@H](NC(=O)C3(F)CC3)C3CCC(F)(F)CC3)nc2c1F (single isomer, unassigned) [Example 83] | 2000
CC(C)n1ncnc1C(=O)N[C@H](c1nc2c(F)c(C(CC(F)(F)F)C(=O)NCC(C)(F)F)ccc2[nH]1)C1CCC(F)(F)CC1 (mixture of isomers) [Example 68, N—[(S)-(4,4-Difluorocyclohexyl){5-[1-(2,2-difluoropropylcarbamoyl)-3,3,3-trifluoro-propyl]-4-fluoro-1H-benzimidazol-2-yl}methyl]-2-isopropyl-1,2,4-triazole-3-carboxamide] | 12.6
CC(C)n1ncnc1C(=O)N[C@H](c1nc2c(F)c([C@H](CC(F)(F)F)C(=O)NCC(C)(C)F)ccc2[nH]1)C1CCC(F)(F)CC1 (single isomer, unassigned) [Example 73] | 6.31
CC(C)n1ncnc1C(=O)N[C@H](c1nc2c(F)c(C(CC(F)F)C(=O)NCC(C)(F)F)ccc2[nH]1)C1CCC(F)(F)CC1 (mixture of isomers) [Example 53, N—[(S)-(4,4-Difluorocyclohexyl){5-[1-(2,2-difluoropropylcarbamoyl)-3,3-difluoropropyl]-4-fluoro-1H-benzimidazol-2-yl}methyl]-2-isopropyl-1,2,4-triazole-3-carboxamide] | 63.1
Cc1nonc1C(=O)N[C@H](c1nc2c(F)c([C@H](CC(F)F)C(=O)NCC(F)(F)F)ccc2[nH]1)C1CCC(F)(F)CC1 (single isomer, unassigned) [Example 41] | 5.01
Cc1nonc1C(=O)N[C@H](c1nc2c(F)c([C@@H](CC(F)(F)F)C(=O)N[C@@H](C(=O)N(C)C)C(C)C)ccc2[nH]1)C1CCC(F)(F)CC1 (single isomer, unassigned) [Example 12] | 126
